Measured values taken from ChEMBL document CHEMBL1201862, “PubChem BioAssay data set” (2004).
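Growth conditions: 96-well plates. Treatment: test compound, 48 hours, 5 concentrations. Analysis: linear interpolation between bracketing concentrations; unreached endpoints set to highest concentration. GI50 marks 50% less growth.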 Activity calls are given as the source filed them. Cut-off read from the data, not from the text of the source: active = GI50 up to about 1.1 µM and inactive = higher.

Experiments:
Test in all cases: NCI anticancer screen, dose series, 48 h
OVCAR-5 = tested on: OVCAR-5
A549 = tested on: A549
SF-539 = tested on: SF-539
OVCAR-3 = tested on: OVCAR-3
786-0 = tested on: 786-0
OVCAR-4 = tested on: OVCAR-4
HOP-92 = tested on: HOP-92
MCF7 = tested on: MCF7
SN12C = tested on: SN12C
RPMI-8226 = tested on: RPMI-8226
HT-29 = tested on: HT-29
Hs-578T = tested on: Hs-578T
OVCAR-8 = tested on: OVCAR-8
NCI-H460 = tested on: NCI-H460
T47D = tested on: T47D
K562 = tested on: K562
SF-268 = tested on: SF-268
IGROV-1 = tested on: IGROV-1
UACC-257 = tested on: UACC-257
UACC-62 = tested on: UACC-62

`CCOC(=O)C1=C(C)N(Cc2ccc(Cl)cc2Cl)C2(O)C(OC)CC(=O)C3C(=O)N(c4ccccc4)C(=O)C132` (stereo not given) was tested, and the GI50 (OVCAR-5) was 2.41 µM (inactive), the GI50 (A549) was 2.34 µM (inactive) and the GI50 (SF-539) was 2.86 µM (inactive). For the same compound, the GI50 (OVCAR-3) was 1.33 µM (inactive), the GI50 (786-0) was 1.47 µM (inactive) and the GI50 (OVCAR-4) was 1.6 µM (inactive). For the same compound, the GI50 (HOP-92) was 0.0541 µM (active), the GI50 (MCF7) was 1.91 µM (inactive) and the GI50 (SN12C) was 2.26 µM (inactive). For the same compound, the GI50 (RPMI-8226) was 1.21 µM (inactive), the GI50 (HT-29) was 1.75 µM (inactive) and the GI50 (Hs-578T) was 9.06 µM (inactive). The GI50 (OVCAR-8) was 1.95 µM (inactive), the GI50 (NCI-H460) was 2.92 µM (inactive) and the GI50 (T47D) was 0.244 µM (active). For the same compound, the GI50 (K562) was 1.11 µM (active), the GI50 (SF-268) was 2.26 µM (inactive) and the GI50 (IGROV-1) was 4.34 µM (inactive). The GI50 (UACC-257) was 3.52 µM (inactive) and the GI50 (UACC-62) was 3.13 µM (inactive).

With `CN(C)CCNC(=O)c1cccc2nc3c(C(=O)NCCN(C)C)cccc3nc12` the GI50 (OVCAR-5) was 2.3 µM (inactive), the GI50 (A549) was 1.57 µM (inactive) and the GI50 (SF-539) was 1.92 µM (inactive). The GI50 (OVCAR-3) was 1.7 µM (inactive), the GI50 (786-0) was 0.393 µM (active) and the GI50 (OVCAR-4) was 0.589 µM (active). The GI50 (HOP-92) was 2.9 µM (inactive), the GI50 (MCF7) was 0.706 µM (active) and the GI50 (SN12C) was 0.918 µM (active). The GI50 (RPMI-8226) was 1.19 µM (inactive), the GI50 (HT-29) was 0.321 µM (active) and the GI50 (Hs-578T) was 1.89 µM (inactive). For the same compound, the GI50 (OVCAR-8) was 0.421 µM (active), the GI50 (NCI-H460) was 0.82 µM (active) and the GI50 (T47D) was 4.34 µM (inactive). For the same compound, the GI50 (K562) was 0.621 µM (active), the GI50 (SF-268) was 0.782 µM (active) and the GI50 (IGROV-1) was 1.78 µM (inactive). For the same compound, the GI50 (UACC-257) was 2.14 µM (inactive) and the GI50 (UACC-62) was 2.9 µM (inactive).

`Cc1ccnc2c1C(=O)C1=C(OC(C)(C)CC1O)C2=O` (stereo not given) was tested, and the GI50 (OVCAR-5) was 8.26 µM (inactive), the GI50 (A549) was 8.77 µM (inactive) and the GI50 (SF-539) was 3.41 µM (inactive). For the same compound, the GI50 (OVCAR-3) was 2.67 µM (inactive), the GI50 (786-0) was 4.08 µM (inactive) and the GI50 (OVCAR-4) was 3.01 µM (inactive). For the same compound, the GI50 (HOP-92) was 10.1 µM (inactive), the GI50 (MCF7) was 2.56 µM (inactive) and the GI50 (SN12C) was 3.21 µM (inactive). For the same compound, the GI50 (RPMI-8226) was 4.06 µM (inactive), the GI50 (HT-29) was 3.08 µM (inactive) and the GI50 (Hs-578T) was 2.81 µM (inactive). The GI50 (OVCAR-8) was 2.83 µM (inactive), the GI50 (NCI-H460) was 2.9 µM (inactive) and the GI50 (T47D) was 4.89 µM (inactive). The GI50 (K562) was 2.99 µM (inactive), the GI50 (SF-268) was 1.79 µM (inactive) and the GI50 (IGROV-1) was 3.03 µM (inactive). For the same compound, the GI50 (UACC-257) was 1.74 µM (inactive) and the GI50 (UACC-62) was 1.71 µM (inactive).

With `COC(=O)c1cc2c(cc1Cl)Sc1nnc(Nc3ccc(C)cc3)n1S2(=O)=O` the GI50 (OVCAR-5) was 17.1 µM (inactive), the GI50 (A549) was 15.4 µM (inactive) and the GI50 (SF-539) was 1.17 µM (inactive). For the same compound, the GI50 (OVCAR-3) was 2.19 µM (inactive), the GI50 (786-0) was 7.69 µM (inactive) and the GI50 (OVCAR-4) was 2.76 µM (inactive). For the same compound, the GI50 (HOP-92) was 3.66 µM (inactive), the GI50 (MCF7) was 3.72 µM (inactive) and the GI50 (SN12C) was 18.1 µM (inactive). For the same compound, the GI50 (RPMI-8226) was 2.17 µM (inactive), the GI50 (HT-29) was 3.92 µM (inactive) and the GI50 (Hs-578T) was 4.9 µM (inactive). For the same compound, the GI50 (OVCAR-8) was 10.5 µM (inactive), the GI50 (NCI-H460) was 11.6 µM (inactive) and the GI50 (T47D) was 1.75 µM (inactive). The GI50 (K562) was 5.13 µM (inactive), the GI50 (SF-268) was 3.6 µM (inactive) and the GI50 (IGROV-1) was 2.15 µM (inactive). For the same compound, the GI50 (UACC-257) was 12.2 µM (inactive) and the GI50 (UACC-62) was 12.3 µM (inactive).

With `C=CCc1c(C)nc(C)nc1N/N=C/C=C/c1ccccc1` the GI50 (OVCAR-5) was 99.5 µM (inactive), the GI50 (A549) was 37.4 µM (inactive) and the GI50 (SF-539) was 32.1 µM (inactive). For the same compound, the GI50 (OVCAR-3) was 19.4 µM (inactive), the GI50 (786-0) was 65.2 µM (inactive) and the GI50 (OVCAR-4) was 0.0435 µM (active). The GI50 (HOP-92) was 40.5 µM (inactive), the GI50 (MCF7) was 23.6 µM (inactive) and the GI50 (SN12C) was 48 µM (inactive). The GI50 (RPMI-8226) was 21.9 µM (inactive), the GI50 (HT-29) was 30.8 µM (inactive) and the GI50 (Hs-578T) was 48.9 µM (inactive). For the same compound, the GI50 (OVCAR-8) was 32.2 µM (inactive), the GI50 (NCI-H460) was 22.4 µM (inactive) and the GI50 (T47D) was 3.73 µM (inactive). The GI50 (K562) was 23.3 µM (inactive), the GI50 (SF-268) was 44.1 µM (inactive) and the GI50 (IGROV-1) was 31.4 µM (inactive). The GI50 (UACC-257) was 14.4 µM (inactive) and the GI50 (UACC-62) was 20.6 µM (inactive).

`CCCCCCCCCCOCCOCCOCCOCCCCC(O)CCCCCCCC1=C[C@H](C)OC1=O` (stereo not given in full) was tested, and the GI50 (OVCAR-5) was 15.7 µM (inactive), the GI50 (A549) was 9.31 µM (inactive) and the GI50 (SF-539) was 12.1 µM (inactive). For the same compound, the GI50 (OVCAR-3) was 16.2 µM (inactive), the GI50 (786-0) was 18.6 µM (inactive) and the GI50 (OVCAR-4) was 12.6 µM (inactive). The GI50 (HOP-92) was 14.2 µM (inactive), the GI50 (MCF7) was 5.62 µM (inactive) and the GI50 (SN12C) was 13.3 µM (inactive). The GI50 (RPMI-8226) was 0.933 µM (active), the GI50 (HT-29) was 10.7 µM (inactive) and the GI50 (Hs-578T) was 14.8 µM (inactive). The GI50 (OVCAR-8) was 13.4 µM (inactive), the GI50 (NCI-H460) was 7.89 µM (inactive) and the GI50 (T47D) was 8.39 µM (inactive). For the same compound, the GI50 (K562) was 4.02 µM (inactive), the GI50 (SF-268) was 10.9 µM (inactive) and the GI50 (IGROV-1) was 14.4 µM (inactive). For the same compound, the GI50 (UACC-257) was 9.14 µM (inactive) and the GI50 (UACC-62) was 13.2 µM (inactive).

With `COC(=O)CCC(=O)NC1=C(NCc2ccccc2)C(=O)c2ccccc2C1=O` the GI50 (OVCAR-5) was 29.5 µM (inactive), the GI50 (A549) was 26.2 µM (inactive) and the GI50 (SF-539) was 20.1 µM (inactive). For the same compound, the GI50 (OVCAR-3) was 3.95 µM (inactive), the GI50 (786-0) was 38.5 µM (inactive) and the GI50 (OVCAR-4) was 18.5 µM (inactive). For the same compound, the GI50 (HOP-92) was 15.7 µM (inactive), the GI50 (MCF7) was 17.3 µM (inactive) and the GI50 (SN12C) was 25.5 µM (inactive). The GI50 (RPMI-8226) was 34 µM (inactive), the GI50 (HT-29) was 25.7 µM (inactive) and the GI50 (Hs-578T) was > 100 µM (inactive). The GI50 (OVCAR-8) was 27.7 µM (inactive), the GI50 (NCI-H460) was 18 µM (inactive) and the GI50 (T47D) was 34 µM (inactive). The GI50 (K562) was 33.9 µM (inactive), the GI50 (SF-268) was 39.8 µM (inactive) and the GI50 (IGROV-1) was 17.7 µM (inactive). For the same compound, the GI50 (UACC-257) was 16.6 µM (inactive) and the GI50 (UACC-62) was 17.3 µM (inactive).

For `CC[C@@]1(O)C(=O)OCc2c1cc1n(c2=O)Cc2c-1nc1ccccc1c2/C=N/NC(=O)C[N+](C)(C)C`, the GI50 (OVCAR-5) was 30.4 µM (inactive), the GI50 (A549) was 1.22 µM (inactive) and the GI50 (SF-539) was 0.386 µM (active). The GI50 (OVCAR-3) was 38.3 µM (inactive), the GI50 (786-0) was 0.662 µM (active) and the GI50 (OVCAR-4) was 41.2 µM (inactive). For the same compound, the GI50 (HOP-92) was 3.68 µM (inactive), the GI50 (MCF7) was 0.192 µM (active) and the GI50 (SN12C) was 0.0857 µM (active). For the same compound, the GI50 (RPMI-8226) was 4.93 µM (inactive), the GI50 (HT-29) was 13.2 µM (inactive) and the GI50 (Hs-578T) was > 100 µM (inactive). For the same compound, the GI50 (OVCAR-8) was 1.98 µM (inactive), the GI50 (NCI-H460) was 0.15 µM (active) and the GI50 (T47D) was 0.239 µM (active). For the same compound, the GI50 (K562) was 2.86 µM (inactive), the GI50 (SF-268) was 0.45 µM (active) and the GI50 (IGROV-1) was 38.8 µM (inactive). For the same compound, the GI50 (UACC-257) was 12.7 µM (inactive) and the GI50 (UACC-62) was 0.121 µM (active).
